Target: T1, bovine carbonic anhydrase-II enzyme (Bos taurus, UniProt P00921)
T1 construct: In vitro experiment of bovine erythrocyte CA-II was conducted in HEPES-Tris buffer; from tissue; host or cells: bovine erythrocytes
Assay: In vitro carbonic anhydrase-II inhibition assay (p-nitrophenylacetate substrate)
Assay type: biochemical
Details: bovine erythrocyte CA-II, HEPES-Tris buffer pH 7.4, 25°C, substrate p-nitrophenylacetate 0.7 mM, triplicate
Method: In vitro experiment of bovine erythrocyte CA-II was conducted in HEPES-Tris buffer (20 mM) to maintain the pH 7.4. The purified was dissolved in HEPES-Tris buffer (0.1 mg/ml), and the reaction mixture was comprised of 140 μL of the HEPES-Tris buffer, 20 μL of the enzyme, and 20 μL of test compound (prepared in DMSO) and was incubated for 15 min at 25°C. After completion of the preincubation, the reaction was started by adding instantly the substrate p-nitrophenylacetate (P-NPA) at a concentration of 0.7 mM and prepared in methanol. To initiate the reaction, the 96-well plate was placed in a microplate reader and continuous product formation was monitored with a one-minute time interval for 30 min at 400 nm. The assay temperature was strictly controlled and kept at 25°C. All the reaction was conducted in triplicate, and the results are presented as mean.

T1 sequence (P00921 whole entry): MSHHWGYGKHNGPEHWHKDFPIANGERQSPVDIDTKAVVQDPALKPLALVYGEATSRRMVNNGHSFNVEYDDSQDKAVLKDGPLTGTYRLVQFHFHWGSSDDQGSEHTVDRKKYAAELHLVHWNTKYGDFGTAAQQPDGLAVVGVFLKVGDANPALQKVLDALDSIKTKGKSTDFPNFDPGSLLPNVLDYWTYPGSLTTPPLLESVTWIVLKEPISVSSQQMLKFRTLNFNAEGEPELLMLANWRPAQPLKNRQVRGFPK

IC50: 13.8 ± 0.63 µM
Structure (SMILES): COc1cc(Br)ccc1O[C@H](C)Cn1cc(-c2ccc(N)cc2)nn1 [Compound 7b, (R)-4-(1-(2-(4-Bromo-2-methoxyphenoxy)propyl)-1H-1,2,3-triazol-4-yl)aniline]

From publication PMC8278147, “Synthesis of New 1H-1,2,3-Triazole Analogs in Aqueous Medium via “Click” Chemistry: A Novel Class of Potential Carbonic Anhydrase-II Inhibitors” (Frontiers in Chemistry, 2021)
